Data from PMC10341573, “Design, Synthesis, and Biological Evaluation of Novel Quinazolin-4(3H)-One-Based Histone Deacetylase 6 (HDAC6) Inhibitors for Anticancer Activity” (International Journal of Molecular Sciences, 2023).
“And” between values parts separate entries of the source, which are not always exact repeats. Equal entries are not always repeated. Where two headings read alike, the source gives them in different places.

Columns and labels:
HDAC4 = biological target: T1, HDAC4 (Homo sapiens, UniProt P56524); assay: HDAC enzyme activity assay (fluorogenic, Boc-Lys(trifluoroacetyl)-AMC), HDAC4; assay type: biochemical; conditions: class IIa HDAC4; mean ± SD, triplicate
T1 construct: catalytic domain of HDAC4 (T648-T1057, full length: UniProt P56524); made in house; host or cells: E. coli BL21(DE3), pET14b vector
T1 sequence (P56524 648-1057): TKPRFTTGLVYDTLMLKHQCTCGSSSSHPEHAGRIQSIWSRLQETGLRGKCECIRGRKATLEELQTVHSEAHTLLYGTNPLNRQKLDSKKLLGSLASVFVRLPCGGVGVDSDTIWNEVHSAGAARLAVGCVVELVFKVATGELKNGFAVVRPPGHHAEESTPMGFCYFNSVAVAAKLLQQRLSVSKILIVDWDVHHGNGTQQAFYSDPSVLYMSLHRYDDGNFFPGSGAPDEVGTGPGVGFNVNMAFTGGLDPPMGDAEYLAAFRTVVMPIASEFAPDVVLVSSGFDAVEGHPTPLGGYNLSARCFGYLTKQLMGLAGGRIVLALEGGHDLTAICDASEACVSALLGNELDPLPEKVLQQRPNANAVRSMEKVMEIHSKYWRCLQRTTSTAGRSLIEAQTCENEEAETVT

B16 = assay: MTT cell proliferation assay, B16; assay type: cell-based, murine; conditions: MTT, 72 h, mean ± SD, triplicate, read-out: IC50 ± SD B16
HDAC8 = biological target: T2, HDAC8 (Homo sapiens, UniProt Q9BY41); assay: HDAC enzyme activity assay (fluorogenic, Boc-Lys(trifluoroacetyl)-AMC), HDAC8; assay type: biochemical; conditions: class I HDAC8; mean ± SD, triplicate
T2 construct: codon-optimized full-length HDAC8; made in house; host or cells: E. coli BL21(DE3), pET14b vector
T2 sequence (Q9BY41 1-377): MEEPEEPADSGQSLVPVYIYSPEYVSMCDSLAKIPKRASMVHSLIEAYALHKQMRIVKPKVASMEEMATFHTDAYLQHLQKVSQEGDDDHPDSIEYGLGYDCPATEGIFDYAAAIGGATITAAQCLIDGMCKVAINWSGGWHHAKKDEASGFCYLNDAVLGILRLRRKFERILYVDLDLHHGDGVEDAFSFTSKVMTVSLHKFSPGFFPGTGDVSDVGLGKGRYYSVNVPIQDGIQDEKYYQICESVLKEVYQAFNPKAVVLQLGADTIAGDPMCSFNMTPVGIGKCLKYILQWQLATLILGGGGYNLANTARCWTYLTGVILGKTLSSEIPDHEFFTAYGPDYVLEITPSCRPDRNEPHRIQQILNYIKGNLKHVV

HCT116 = assay: MTT cell proliferation assay, HCT116; assay type: cell-based, human; conditions: MTT, 72 h, mean ± SD, triplicate, read-out: IC50 ± SD HCT116
HEK 293 = assay: MTT cell proliferation assay, HEK 293; assay type: cell-based, human; conditions: MTT, 72 h, mean ± SD, triplicate, read-out: IC50 ± SD HEK 293
MCF7 = assay: MTT cell proliferation assay, MCF7; assay type: cell-based, human; conditions: MTT, 72 h, mean ± SD, triplicate, read-out: IC50 ± SD MCF7
HDAC6 = biological target: T3, HDAC6 (Homo sapiens, UniProt Q9UBN7); assay: HDAC enzyme activity assay (fluorogenic, Boc-Lys(acetyl)-AMC), HDAC6; assay type: biochemical; conditions: for IC50: class IIb HDAC6, mean ± SD, triplicate
T3 construct: Full-length recombinant HDAC6 was purchased from BPS Bioscience; purchased BPS Bioscience
T3 sequence (Q9UBN7 1-1215): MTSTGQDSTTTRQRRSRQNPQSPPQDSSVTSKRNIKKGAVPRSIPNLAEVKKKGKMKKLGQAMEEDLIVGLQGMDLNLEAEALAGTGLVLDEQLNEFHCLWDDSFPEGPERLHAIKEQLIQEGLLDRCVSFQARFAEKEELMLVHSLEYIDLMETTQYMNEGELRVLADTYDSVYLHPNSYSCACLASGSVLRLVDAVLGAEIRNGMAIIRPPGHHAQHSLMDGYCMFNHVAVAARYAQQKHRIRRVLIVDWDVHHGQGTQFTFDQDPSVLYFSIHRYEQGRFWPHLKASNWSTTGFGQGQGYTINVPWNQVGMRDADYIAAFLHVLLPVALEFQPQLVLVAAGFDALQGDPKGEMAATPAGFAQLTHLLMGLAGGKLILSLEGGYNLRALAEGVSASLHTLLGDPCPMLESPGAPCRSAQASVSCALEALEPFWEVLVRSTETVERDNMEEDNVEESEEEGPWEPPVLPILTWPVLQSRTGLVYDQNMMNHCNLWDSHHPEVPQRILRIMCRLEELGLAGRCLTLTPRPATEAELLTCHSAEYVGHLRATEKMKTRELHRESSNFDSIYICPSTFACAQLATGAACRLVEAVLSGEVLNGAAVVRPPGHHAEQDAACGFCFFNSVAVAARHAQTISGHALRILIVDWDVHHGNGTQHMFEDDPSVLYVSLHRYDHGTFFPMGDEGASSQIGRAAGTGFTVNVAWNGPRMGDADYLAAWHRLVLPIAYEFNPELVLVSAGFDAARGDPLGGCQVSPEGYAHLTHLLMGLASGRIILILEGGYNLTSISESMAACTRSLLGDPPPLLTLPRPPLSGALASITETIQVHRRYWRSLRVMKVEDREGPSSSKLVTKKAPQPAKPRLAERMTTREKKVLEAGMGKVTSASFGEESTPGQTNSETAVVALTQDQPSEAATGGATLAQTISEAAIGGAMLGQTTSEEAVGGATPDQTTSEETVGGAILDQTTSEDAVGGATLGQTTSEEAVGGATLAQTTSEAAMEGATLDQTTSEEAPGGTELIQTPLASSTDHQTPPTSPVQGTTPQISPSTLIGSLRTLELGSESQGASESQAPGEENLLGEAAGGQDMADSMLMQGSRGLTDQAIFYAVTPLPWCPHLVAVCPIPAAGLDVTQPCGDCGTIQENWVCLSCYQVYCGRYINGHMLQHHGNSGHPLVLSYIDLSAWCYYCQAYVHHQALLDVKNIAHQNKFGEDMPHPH

Row | SMILES | IC50 (HDAC4) [µM] | IC50 (B16; Mus musculus, B16) [µM] | IC50 (HDAC8) [µM] | IC50 (HCT116; Homo sapiens, HCT-116) [µM] | IC50 (MCF7; Homo sapiens, MCF7, 72 h) [µM] | IC50 (HDAC6) | IC50 (HEK 293; Homo sapiens, HEK293) [µM] | selectivity against class IIa HDAC4 (HDAC6; HDAC6 versus HDAC4) [fold] | selectivity against class I HDAC8 (HDAC6; HDAC6 versus HDAC8) [fold] | IC50 (B16) [µM] | IC50 (HCT116) [µM] | IC50 (HEK 293) [µM] | IC50 (MCF7) [µM]
1 | O=C(NO)c1ccc(CSc2nc3ccccc3c(=O)n2-c2ccc(Cl)cc2)cc1 [Compound 5a, 4-(((3-(4-chlorophenyl)-4-oxo-3,4-dihydroquinazolin-2-yl)thio)methyl)-N-hydroxybenzamide] | 4.5 ± 1.2 | 48.8 ± 9.68 | 24 | 46.2 ± 20 | 26.5 ± 3.5 | 5.6 ± 0.6 µM | 30.9 |  |  |  |  |  | 
2 | O=C(NO)c1ccc(CSc2nc3ccccc3c(=O)n2-c2ccccc2)cc1 [Compound 5b, N-hydroxy-4-(((4-oxo-3-phenyl-3,4-dihydroquinazolin-2-yl)thio)methyl)benzamide] | 2.3 ± 1.1 | 28.9 ± 2.32 | 1.4 ± 0.3 | 17.6 ± 1.77 | 24.3 ± 5.97 | 0.15 ± 0.01 µM | 26.4 ± 5 |  |  |  |  |  | 
3 | O=C(NO)c1ccc(CSc2nc3ccccc3c(=O)n2-c2ccc(Br)cc2)cc1 [Compound 5e, 4-(((3-(4-bromophenyl)-4-oxo-3,4-dihydroquinazolin-2-yl)thio)methyl)-N-hydroxybenzamide] | 1.1 ± 0.4 | 26.1 ± 1.27 | 3 ± 0.5 | 46.4 ± 17.8 | 44.6 ± 1.07 | 1.1 ± 0.1 µM | > 50 |  |  |  |  |  | 
4 | Cc1cccc(-n2c(SCc3ccc(C(=O)NO)cc3)nc3ccccc3c2=O)c1 [Compound 5g, N-hydroxy-4-(((4-oxo-3-(m-tolyl)-3,4-dihydroquinazolin-2-yl)thio)methyl)benzamide] | 0.87 ± 0.31 | 23 ± 13.7 | 0.79 ± 0.16 | 30.7 ± 15.8 | 25.3 ± 3.21 | 0.26 ± 0.02 µM | > 50 |  |  |  |  |  | 
5 | O=C(NO)c1ccc(CSc2nc3ccccc3c(=O)n2-c2cccc(Cl)c2)cc1 [Compound 5h, 4-(((3-(3-chlorophenyl)-4-oxo-3,4-dihydroquinazolin-2-yl)thio)methyl)-N-hydroxybenzamide] | 1.4 ± 0.5 | > 50 | 1.1 ± 0.3 | > 50 | > 50 | 0.17 ± 0.03 µM | > 50 |  |  |  |  |  | 
6 | Cc1ccc(-n2c(SCc3ccc(C(=O)NO)cc3)nc3cc(Cl)ccc3c2=O)cc1C [Compound 5o, 4-(((7-chloro-3-(3,4-dimethylphenyl)-4-oxo-3,4-dihydroquinazolin-2-yl)thio)methyl)-N-hydroxybenzamide] | 7.1 ± 1.1 | > 50 | 14 | > 50 | > 50 | 0.4 µM and 0.39 µM | > 50 | 18 | 36 |  |  |  | 
7 | CC(/C=C/C(=O)NO)=C\[C@@H](C)C(=O)c1ccc(N(C)C)cc1 [Trichostatin A, reference compound] |  |  |  |  |  |  |  |  |  | 28.9 ± 13 | 18.3 ± 5.63 | 15.3 ± 1.45 | 42.5 ± 11.3

Further lines, with some results ahead:

Row | IC50 (HDAC4) [µM] | IC50 (B16; Mus musculus, B16) [µM] | IC50 (HDAC8) [µM] | IC50 (HCT116; Homo sapiens, HCT-116) [µM] | IC50 (MCF7; Homo sapiens, MCF7, 72 h) [µM] | IC50 (HDAC6) | SMILES | IC50 (HEK 293; Homo sapiens, HEK293) [µM] | selectivity against class IIa HDAC4 (HDAC6; HDAC6 versus HDAC4) [fold] | selectivity against class I HDAC8 (HDAC6; HDAC6 versus HDAC8) [fold] | IC50 (B16) [µM] | IC50 (HCT116) [µM] | IC50 (HEK 293) [µM] | IC50 (MCF7) [µM]
8 | 8.4 ± 1.2 | > 50 | 2.9 ± 0.6 | 40.4 ± 16 | > 50 | 0.36 ± 0.04 µM | O=C(NO)c1ccc(CSc2nc3ccccc3c(=O)n2-c2ccccc2F)cc1 [Compound 5i, 4-(((3-(2-fluorophenyl)-4-oxo-3,4-dihydroquinazolin-2-yl)thio)methyl)-N-hydroxybenzamide] | > 50 |  |  |  |  |  | 
9 | 4.3 ± 1.2 | > 50 | 4 ± 1 | > 50 | > 50 | 0.65 ± 0.07 µM | O=C(NO)c1ccc(CSc2nc3cc(Cl)ccc3c(=O)n2-c2ccccc2)cc1 [Compound 5j, 4-(((7-chloro-4-oxo-3-phenyl-3,4-dihydroquinazolin-2-yl)thio)methyl)-N-hydroxybenzamide] | > 50 |  |  |  |  |  | 
10 | 0.56 ± 0.24 | > 50 | 3.3 ± 0.9 | > 50 | > 50 | 0.21 ± 0.05 µM | O=C(NO)c1ccc(CSc2nc3cc(Cl)ccc3c(=O)n2-c2ccccc2F)cc1 [Compound 5m, 4-(((7-chloro-3-(2-fluorophenyl)-4-oxo-3,4-dihydroquinazolin-2-yl)thio)methyl)-N-hydroxybenzamide] | > 50 |  |  |  |  |  | 
11 | 0.4 ± 0.14 | > 50 | 2.7 ± 0.6 | > 50 | > 50 | 0.22 ± 0.05 µM | Cc1cccc2nc(SCc3ccc(C(=O)NO)cc3)n(-c3ccccc3)c(=O)c12 [Compound 5p, N-hydroxy-4-(((5-methyl-4-oxo-3-phenyl-3,4-dihydroquinazolin-2-yl)thio)methyl)benzamide] | > 50 |  |  |  |  |  | 
12 | 0.91 ± 0.33 | > 50 | 5.9 ± 0.8 | > 50 | > 50 | 0.86 ± 0.06 µM | Cc1cccc2nc(SCc3ccc(C(=O)NO)cc3)n(-c3ccc(Cl)cc3)c(=O)c12 [Compound 5s, 4-(((3-(4-chlorophenyl)-5-methyl-4-oxo-3,4-dihydroquinazolin-2-yl)thio)methyl)-N-hydroxybenzamide] | > 50 |  |  |  |  |  | 
13 |  | > 50 |  | > 50 | > 50 |  | C#Cc1cccc(Nc2ncnc3cc(OCCOC)c(OCCOC)cc23)c1 [Erlotinib, reference compound] | > 50 |  |  |  |  |  | 
14 |  | 1.99 ± 0.25 |  | 1.34 ± 0.04 | 12.7 ± 4.68 |  | CN1CCc2c(c3ccccc3n2Cc2ccc(C(=O)NO)cc2)C1 [Tubastatin, reference compound] | 1.26 ± 0.29 |  |  |  |  |  | 
